Measured values as given in patent US12065430B2, “Indazole compound or salt thereof” (TAIHO PHARMACEUTICAL CO., LTD., priority 2018, dated 2024).

target: G12C K-Ras4B (1-169) (Homo sapiens (Human), UniProt P01116, G12C); assay: Test of compounds on whether to bind to KRASG12C (LC-MS compound binding rate); settings: final compound concentration of 2 μM, 1 μM protein, 25° C. for 2 hours
Protocol: Test compounds were prepared in the form of a 10 mM DMSO solution.
K-Ras4B (1-169) and G12C K-Ras4B (1-169) proteins were mixed and diluted with a buffer (1×TBS, 0.1 mM TCEP) to prepare individual 1 μM protein solutions. A 10 mM test compound was diluted tenfold with DMSO to make a 1 mM solution, and then diluted fivefold with DMSO to make a 200 μM solution. The 200 μM solution was further diluted fivefold to make a 40 μM solution. When the final compound concentration was 10 μM, 1 μL of a 200 μM test compound was added to 19 μL of a 1 μM protein solution. When the final compound concentration was 2 μM, 1 μL of a 40 μM test compound was added to 19 μL of a 1 μM protein solution. The mixtures were stored in an incubator at 25° C. for 2 hours, and 80 μL of a 1×TBS solution containing 0.2% formic acid was added thereto to end the reaction, followed by LC-MS measurement. LC-MS measurement was performed using Xevo G2-S Q-Tof manufactured by Waters, and reverse-phase chromatography was performed with a desalting column. A mass spectrum of positive ions was obtained by electrospray. For a mass spectrum, a spectrum of a polyvalent ion was collectively converted to a molecular weight by using OpenLynx software by the MaxEnt technique, and a compound binding rate was obtained from the ratio of a signal intensity that corresponds to the molecular weight of a protein to a signal intensity that corresponds to the molecular weight of a compound binding to the protein.
By obtaining the compound binding rate for K-Ras4B (1-169) and the compound binding rate for G12C K-Ras4B (1-169) at the same time, information of the selectivity for G12C K-Ras4B (1-169) was obtained at the same time.
The test compounds were measured at their final compound concentration of 2 μM. […] Almost no compounds of the present invention binded to K-Ras4B (1-169). The “binding rate” (%) for each of K-Ras4B (1-169) and G12C K-Ras4B (1-169) refers to the ratio of the signal intensity of binded forms to the sum of the signal intensity of non-binded forms and the signal intensity of binded forms.

SMILES	binding rate for G12C K-Ras4B (1-169)
C=CC(=O)N1CC(NC(=O)c2c(C)nc(CNc3n[nH]c4cc(Cl)c(C(C)(C)C)cc34)n2C(F)F)C1 [Example 21, N-(1-acryloylazetidin-3-yl)-2-(((5-(tert-butyl)-6-chloro-1H-indazol-3-yl)amino)methyl)-1-(difluoromethyl)-4-methyl-1H-imidazole-5-carboxamide]	B (a binding rate of 60% or more and less than 80% is rated “B,”)
C=CC(=O)N1CC(NC(=O)c2c(C)nc(CNc3n[nH]c4cc(Cl)c(C(C)(C)C)cc34)n2CC(F)(F)F)C1 [Example 22, N-(1-acryloylazetidin-3-yl)-2-(((5-(tert-butyl)-6-chloro-1H-indazol-3-yl)amino)methyl)-4-methyl-1-(2,2,2-trifluoroethyl)-1H-imidazole-5-carboxamide]	B (a binding rate of 60% or more and less than 80% is rated “B,”)
C=CC(=O)N1CC(NC(=O)c2c(C)nc(CNc3n[nH]c4cc(Cl)c(C(C)(C)C)cc34)n2C2CC2)C1 [Example 23, N-(1-acryloylazetidin-3-yl)-2-(((5-(tert-butyl)-6-chloro-1H-indazol-3-yl)amino)methyl)-1-cyclopropyl-4-methyl-1H-imidazole-5-carboxamide]	A (a binding rate of 80% or more is rated “A,”)
C=CC(=O)N1CC(NC(=O)c2c(C)nc(CNc3n[nH]c4cc(Cl)c(C(C)(C)C)cc34)n2C(C)(C)C)C1 [Example 24, N-(1-acryloylazetidin-3-yl)-1-(tert-butyl)-2-(((5-(tert-butyl)-6-chloro-1H-indazol-3-yl)amino)methyl)-4-methyl-1H-imidazole-5-carboxamide]	C (a binding rate of 40% or more and less than 60% is rated “C,”)
C=CC(=O)N1CC(NC(=O)c2c(C(F)(F)F)nc(CNc3n[nH]c4cc(Cl)c(C(C)(C)C)cc34)n2C)C1 [Example 25, N-(1-acryloylazetidin-3-yl)-2-(((5-(tert-butyl)-6-chloro-1H-indazol-3-yl)amino)methyl)-1-methyl-4-(trifluoromethyl)-1H-imidazole-5-carboxamide]	A (a binding rate of 80% or more is rated “A,”)
C=CC(=O)N1CC(NC(=O)c2c(I)nc(CNc3n[nH]c4cc(Cl)c(C(C)(C)C)cc34)n2C)C1 [Example 26, N-(1-acryloylazetidin-3-yl)-2-(((5-(tert-butyl)-6-chloro-1H-indazol-3-yl)amino)methyl)-4-iodo-1-methyl-1H-imidazole-5-carboxamide]	A (a binding rate of 80% or more is rated “A,”)
C=CC(=O)N1CC(NC(=O)c2c(Br)nc(CNc3n[nH]c4cc(Cl)c(C(C)(C)C)cc34)n2C)C1 [Example 27, N-(1-acryloylazetidin-3-yl)-4-bromo-2-(((5-(tert-butyl)-6-chloro-1H-indazol-3-yl)amino)methyl)-1-methyl-1H-imidazole-5-carboxamide]	A (a binding rate of 80% or more is rated “A,”)
C=CC(=O)N1CC(NC(=O)c2c(C#N)nc(CNc3n[nH]c4cc(Cl)c(C(C)(C)C)cc34)n2C)C1 [Example 28, N-(1-acryloylazetidin-3-yl)-2-(((5-(tert-butyl)-6-chloro-1H-indazol-3-yl)amino)methyl)-4-cyano-1-methyl-1H-imidazole-5-carboxamide]	B (a binding rate of 60% or more and less than 80% is rated “B,”)
C=CC(=O)N1CC(NC(=O)c2c(F)nc(CNc3n[nH]c4cc(Cl)c(C(C)(C)C)cc34)n2C)C1 [Example 30, N-(1-acryloylazetidin-3-yl)-2-(((5-(tert-butyl)-6-chloro-1H-indazol-3-yl)amino)methyl)-4-fluoro-1-methyl-1H-imidazole-5-carboxamide]	C (a binding rate of 40% or more and less than 60% is rated “C,”)
C=CC(=O)N1CC(NC(=O)c2c(CC)nc(CNc3n[nH]c4cc(Cl)c(C(C)(C)C)cc34)n2C)C1 [Example 31, N-(1-acryloylazetidin-3-yl)-2-(((5-(tert-butyl)-6-chloro-1H-indazol-3-yl)amino)methyl)-4-ethyl-1-methyl-1H-imidazole-5-carboxamide]	D (a binding rate of 20% or more and less than 40% is rated “D,”)
C=CC(=O)N1CC(NC(=O)c2c(C(F)(F)F)nc(CNc3n[nH]c4cc(Cl)c(C(C)(C)C)cc34)n2C(C)C)C1 [Example 32, N-(1-acryloylazetidin-3-yl)-2-(((5-(tert-butyl)-6-chloro-1H-indazol-3-yl)amino)methyl)-1-isopropyl-4-(trifluoromethyl)-1H-imidazole-5-carboxamide]	B (a binding rate of 60% or more and less than 80% is rated “B,”)
C=CC(=O)N1CC(NC(=O)c2c(F)nc(CNc3n[nH]c4cc(Cl)c(C(C)(C)C)cc34)n2C(C)C)C1 [Example 34, N-(1-acryloylazetidin-3-yl)-2-(((5-(tert-butyl)-6-chloro-1H-indazol-3-yl)amino)methyl)-4-fluoro-1-isopropyl-1H-imidazole-5-carboxamide]	A (a binding rate of 80% or more is rated “A,”)
[2H]C([2H])(Nc1n[nH]c2cc(Cl)c(C(C)(C)C)cc12)c1nc(C(F)F)c(C(=O)NC2CN(C(=O)C=C)C2)n1C(C)C [Example 36, N-(1-acryloylazetidin-3-yl)-2-(((5-(tert-butyl)-6-chloro-1H-indazol-3-yl)amino)methyl-d2)-4-(difluoromethyl)-1-isopropyl-1H-imidazole-5-carboxamide]	B (a binding rate of 60% or more and less than 80% is rated “B,”)
C=CC(=O)N1CC(NC(=O)c2cnc(CNc3n[nH]c4cc(Cl)c(C)cc34)n2C)C1 [Example 37, N-(1-acryloylazetidin-3-yl)-2-(((6-chloro-5-methyl-1H-indazol-3-yl)amino)methyl)-1-methyl-1H-imidazole-5-carboxamide]	C (a binding rate of 40% or more and less than 60% is rated “C,”)
C=CC(=O)N1CC(NC(=O)c2cnc(CNc3n[nH]c4cc(Cl)c(C=C)cc34)n2C)C1 [Example 38, N-(1-acryloylazetidin-3-yl)-2-(((6-chloro-5-vinyl 1H-indazol-3-yl)amino)methyl)-1-methyl-1H-imidazole-5-carboxamide]	C (a binding rate of 40% or more and less than 60% is rated “C,”)
C=CC(=O)N1CC(NC(=O)c2cnc(CNc3n[nH]c4cc(Cl)c(CC)cc34)n2C)C1 [Example 39, N-(1-acryloylazetidin-3-yl)-2-(((6-chloro-5-ethyl-1H-indazol-3-yl)amino)methyl)-1-methyl-1H-imidazole-5-carboxamide]	C (a binding rate of 40% or more and less than 60% is rated “C,”)
C=CC(=O)N1CC(NC(=O)c2cnc(CNc3n[nH]c4cc(Cl)c(C(C)(C)C)nc34)n2C)C1 [Example 40, N-(1-acryloylazetidin-3-yl)-2-(((5-(tert-butyl)-6-chloro-1H-pyrazolo[4,3-b]pyridin-3-yl)amino)methyl)-1-methyl-1H-imidazole-5-carboxamide]	A (a binding rate of 80% or more is rated “A,”)
C=CC(=O)N1CC(NC(=O)c2c(C)nc(CNc3n[nH]c4cc(C)c(C(C)(C)C)cc34)n2C)C1 [Example 41, N-(1-acryloylazetidin-3-yl)-2-(((5-(tert-butyl)-6-methyl-1H-indazol-3-yl)amino)methyl)-1,4-dimethyl-1H-imidazole-5-carboxamide]	A (a binding rate of 80% or more is rated “A,”)
C=CC(=O)N1CC(NC(=O)c2c(C)nc(CNc3n[nH]c4ccc(C(C)(C)C)cc34)n2C(C)C)C1 [Example 42, N-(1-acryloylazetidin-3-yl)-2-(((5-(tert-butyl)-1H-indazol-3-yl)amino)methyl)-1-isopropyl-4-methyl-1H-imidazole-5-carboxamide]	B (a binding rate of 60% or more and less than 80% is rated “B,”)
C=CC(=O)N1CC(NC(=O)c2c(Cl)nc(CNc3n[nH]c4cc(Cl)c(C(=C)C(F)(F)F)cc34)n2C(C)C)C1 [Example 43, N-(1-acryloylazetidin-3-yl)-4-chloro-2-(((6-chloro-5-(3,3,3-trifluoroprop-1-en-2-yl)-1H-indazol-3-yl)amino)methyl)-1-isopropyl-1H-imidazole-5-carboxamide]	C (a binding rate of 40% or more and less than 60% is rated “C,”)
